Data on five compounds can be found in patent US5840684A, “Glycopeptide antibiotic derivatives” (Eli Lilly and Company, priority 1995, dated 1998).

Test [1] has as its system vancomycin-susceptible enterococci. Put plainly: broth micro-dilution, mean geometric MIC. It is filed as cell-based, Enterococcus faecium and Enterococcus faecalis. The following applies: enterococci, 24-hour incubation.
A further test deals with Entercoccus faecium 2041. Put plainly: broth micro-dilution MIC. The settings on record: Entercoccus faecium 2041. It is filed as cell-based. As to the method: (§1) The formula I compounds have in vitro and in vivo activity against Gram-positive pathogenic bacteria. The MIC's were determined using a standard broth micro-dilution assay.
Test [2] has as its system Streptococcus pneumoniae P1. The test is described as follows: broth micro-dilution MIC. It is filed as cell-based. As to the method: as §1
In general terms: Broth dilution looks for growth in wells or tubes with falling amounts of substance.

Test [3] deals with Staphylococcus epidermidis 270. The test is described as follows: broth micro-dilution MIC. It is filed as cell-based. As to the method: as §1
In test [4] the test system is Staphylococcus haemolyticus 105. Put plainly: broth micro-dilution MIC. It is filed as cell-based. On the procedure: as §1
In test [5] the test system is Staphylococcus haemolyticus 415. The test is described as follows: broth micro-dilution MIC. The class given is cell-based. As to the method: as §1
Test [6] relates to Enterococcus gallinarum 245. The test is described as follows: broth micro-dilution MIC. The following applies: Enterococcus gallinarum 245. It is filed as cell-based. On the procedure:
as §1

The next test concerns Entercoccus faecium 180. Put plainly: broth micro-dilution MIC. The class given is cell-based. The following applies: Entercoccus faecium 180. On the procedure: as §1
The subject of test [7] is vancomycin-resistant enterococci. The test is described as follows: broth micro-dilution, mean geometric MIC. It is filed as cell-based, Enterococcus faecium and Enterococcus faecalis. The following applies: enterococci, 24-hour incubation.
Test [8] concerns Staphylococcus aureus X400. Put plainly: broth micro-dilution MIC. It is filed as cell-based. As to the method:
(§2) The MIC's were determined using a standard broth micro-dilution assay.

For test [9], the system named is Staphylococcus aureus SA1199. Put plainly: broth micro-dilution MIC. The class given is cell-based. On the procedure: as §2
For test [10], the system named is Streptococcus pyogenes C203. The test is described as follows: broth micro-dilution MIC. It is filed as cell-based. On the procedure: as §2
Test [11] relates to Entercoccus faecium 180-1. Put plainly: broth micro-dilution MIC. The class given is cell-based. On the procedure:
as §2

Test [12] deals with Staphylococcus aureus 491. The test is described as follows: broth micro-dilution MIC. The class given is cell-based. As to the method: as §2
Test [13] has as its system Staphylococcus aureus X778. Put plainly: broth micro-dilution MIC. It is filed as cell-based. On the procedure: as §2
Test [14] deals with Staphylococcus aureus 446. The test is described as follows: broth micro-dilution MIC. The class given is cell-based. On the procedure:
as §2

Another test relates to Entercoccus faecium 276. Put plainly: broth micro-dilution MIC. The class given is cell-based. As to the method: as §2
Test [15] deals with Staphylococcus aureus 447. The test is described as follows: broth micro-dilution MIC. It is filed as cell-based. On the procedure: as §2
The test system of test [16] is Staphylococcus aureus 489. The test is described as follows: broth micro-dilution MIC. It is filed as cell-based. As to the method: as §2
The test system of test [17] is Staphylococcus aureus SA1199A. The test is described as follows: broth micro-dilution MIC. The class given is cell-based. As to the method:
as §2

In test [18] the test system is Staphylococcus aureus SA1199B. It is filed as cell-based. As to the method:
as §2

For test [19], the system named is Staphylococcus aureus S13E. It is filed as cell-based. On the procedure: as §2

≈ marks a conversion by molar mass, not a printed value. Some results are limits rather than exact numbers.

As usually defined, the MIC is the smallest concentration in the dilution series that meets the test's criterion for growth inhibition. Higher therefore signals a less susceptible organism. As for `CNC(CC(C)C)C(=O)NC1C(=O)NC(CC(N)=O)C(=O)NC2C(=O)NC3C(=O)NC(C(=O)NC(C(=O)O)c4cc(O)cc(O)c4-c4cc3ccc4O)C(OC3CC(C)(N)C(O)C(C)O3)c3ccc(c(Cl)c3)Oc3cc2cc(c3OC2OC(CO)C(O)C(O)C2OC2CC(C)(NCc3ccnc4ccccc34)C(O)C(C)O2)Oc2ccc(cc2Cl)C1O` (centres unmarked) [Compound 27], in test [1], the “mean geometric MIC, Vancomycin Sensitive Strains” value was determined as 1.5 mg/L. In addition, the MIC against Entercoccus faecium 2041 is 0.125 mg/L (≈ 0.0721 µM); in [2], ≤ 0.06 mg/L; in test [3] it was 4 mg/L (≈ 2.31 µM); in [4], 16 mg/L (≈ 9.23 µM); in test [5], 8 mg/L (≈ 4.61 µM); in [6] it was 0.5 mg/L (≈ 0.288 µM). In addition, the MIC with Entercoccus faecium 180 is 8 mg/L (≈ 4.61 µM); in [8], 0.5 mg/L (≈ 0.288 µM); in test [9] it was 0.5 mg/L (≈ 0.288 µM); in [10], ≤ 0.06 mg/L; in test [11] it was 0.5 mg/L (≈ 0.288 µM); in test [12] it was 1 mg/L (≈ 0.577 µM). Moreover, the MIC in [13] was 0.5 mg/L (≈ 0.288 µM); in test [14], 2 mg/L (≈ 1.15 µM); with Entercoccus faecium 276, 0.5 mg/L (≈ 0.288 µM); in test [15] it was 8 mg/L (≈ 4.61 µM); in test [16], ≤ 0.06 mg/L; in test [17], ≤ 0.06 mg/L. Further, the figures for the MIC in [18] and in test [19] were 1 mg/L (≈ 0.577 µM) and 0.125 mg/L (≈ 0.0721 µM), respectively. Further, in test [7], the “mean geometric MIC, Vancomycin Resistant Strains” value worked out at 45 mg/L.
`CCCCCC#Cc1ccc(CNC2(C)CC(OC3C(Oc4c5cc6cc4Oc4ccc(cc4Cl)C(OC4CC(C)(N)C(O)C(C)O4)C4NC(=O)C(NC(=O)C6NC(=O)C(CC(N)=O)NC(=O)C(NC(=O)C(CC(C)C)NC)C(O)c6ccc(c(Cl)c6)O5)c5ccc(O)c(c5)-c5c(O)cc(O)cc5C(C(=O)O)NC4=O)OC(CO)C(O)C3O)OC(C)C2O)cc1` (centres unmarked) [Compound 227]: the “mean geometric MIC, Vancomycin Sensitive Strains” value in test [1] is 0.11 mg/L. Further, the MIC in the test with Entercoccus faecium 2041 was 0.25 mg/L (≈ 0.141 µM); in [2], ≤ 0.06 mg/L; in test [3] it was 2 mg/L (≈ 1.13 µM); in test [4], 2 mg/L (≈ 1.13 µM); in [5], 4 mg/L (≈ 2.25 µM); in test [6], 4 mg/L (≈ 2.25 µM). For the same compound, the MIC against Entercoccus faecium 180 is 0.25 mg/L (≈ 0.141 µM); in test [8], 1 mg/L (≈ 0.563 µM); in test [9], 4 mg/L (≈ 2.25 µM); in test [10], ≤ 0.06 mg/L; in test [11], ≤ 0.06 mg/L; in test [12], 2 mg/L (≈ 1.13 µM). Besides, the MIC in [13] worked out at 4 mg/L (≈ 2.25 µM); in test [14] it was 2 mg/L (≈ 1.13 µM); in the test with Entercoccus faecium 276, 0.5 mg/L (≈ 0.281 µM); in test [15], 2 mg/L (≈ 1.13 µM); in test [16] it was 2 mg/L (≈ 1.13 µM); in test [17], 0.6 mg/L (≈ 0.338 µM). For the same compound, the MIC in test [18] and in test [19] was 4 mg/L (≈ 2.25 µM) each time. Moreover, in [7], the “mean geometric MIC, Vancomycin Resistant Strains” value is 0.71 mg/L.
On to `CN[C@H](CC(C)C)C(=O)N[C@H]1C(=O)N[C@@H](CC(N)=O)C(=O)N[C@H]2C(=O)N[C@H]3C(=O)N[C@H](C(=O)N[C@H](C(=O)O)c4cc(O)cc(O)c4-c4cc3ccc4O)[C@H](O[C@H]3C[C@](C)(N)[C@@H](O)[C@H](C)O3)c3ccc(c(Cl)c3)Oc3cc2cc(c3O[C@@H]2O[C@H](CO)[C@@H](O)[C@H](O)[C@H]2O[C@H]2C[C@](C)(NCc3ccc(Oc4ccc(C)cc4)cc3)[C@@H](O)[C@H](C)O2)Oc2ccc(cc2Cl)[C@H]1O` [Compound 95], for which the “mean geometric MIC, Vancomycin Sensitive Strains” value in test [1] worked out at 0.054 mg/L. Moreover, the MIC against Entercoccus faecium 2041 is ≤ 0.06 mg/L; in test [2], ≤ 0.06 mg/L; in [3], 1 mg/L (≈ 0.559 µM); in test [4], 1 mg/L (≈ 0.559 µM); in [5], 1 mg/L (≈ 0.559 µM); in test [6], 1 mg/L (≈ 0.559 µM). The minimal inhibitory concentration (MIC) is 0.5 mg/L (≈ 0.28 µM) in the test on Entercoccus faecium 180; 1 mg/L (≈ 0.559 µM) in test [8]; 0.5 mg/L (≈ 0.28 µM) in [9]; ≤ 0.06 mg/L in [10]; ≤ 0.06 mg/L in [11]; 1 mg/L (≈ 0.559 µM) in test [12]. Further, the MIC in [13] is 1 mg/L (≈ 0.559 µM); in test [14] it was 0.5 mg/L (≈ 0.28 µM); in the test on Entercoccus faecium 276 it was 0.125 mg/L (≈ 0.0699 µM); in test [15], 0.5 mg/L (≈ 0.28 µM); in test [16], 2 mg/L (≈ 1.12 µM); in test [17] it was ≤ 0.06 mg/L. Besides, the MIC in test [18] was 1 mg/L (≈ 0.559 µM); in [19], 2 mg/L (≈ 1.12 µM). In addition, in [7], the “mean geometric MIC, Vancomycin Resistant Strains” value turned out to be 1.7 mg/L.
In the case of `CNC(CC(C)C)C(=O)NC1C(=O)NC(CC(N)=O)C(=O)NC2C(=O)NC3C(=O)NC(C(=O)NC(C(=O)O)c4cc(O)cc(O)c4-c4cc3ccc4O)C(OC3CC(C)(N)C(O)C(C)O3)c3ccc(c(Cl)c3)Oc3cc2cc(c3OC2OC(CO)C(O)C(O)C2OC2CC(C)(NCC3CCC(C4CCCCC4)CC3)C(O)C(C)O2)Oc2ccc(cc2Cl)C1O` (centres unmarked) [Compound 164], the “mean geometric MIC, Vancomycin Sensitive Strains” value in [1] was 0.11 mg/L. Also, the MIC with Entercoccus faecium 2041 was 1 mg/L (≈ 0.565 µM); in test [2], ≤ 0.06 mg/L; in test [3], 1 mg/L (≈ 0.565 µM); in [4] it was 2 mg/L (≈ 1.13 µM); in test [5], 2 mg/L (≈ 1.13 µM); in test [6], 2 mg/L (≈ 1.13 µM). Moreover, the minimum inhibitory concentration (MIC) was 0.5 mg/L (≈ 0.282 µM) against Entercoccus faecium 180; 0.5 mg/L (≈ 0.282 µM) in test [8]; 2 mg/L (≈ 1.13 µM) in test [9]; ≤ 0.06 mg/L in test [10]; ≤ 0.06 mg/L in [11]; 1 mg/L (≈ 0.565 µM) in [12]. Also, the MIC was determined as 1 mg/L (≈ 0.565 µM) in test [13]; 2 mg/L (≈ 1.13 µM) in [14]; 1 mg/L (≈ 0.565 µM) in the test on Entercoccus faecium 276; 2 mg/L (≈ 1.13 µM) in [15]; 2 mg/L (≈ 1.13 µM) in test [16]; 0.5 mg/L (≈ 0.282 µM) in test [17]. For the same compound, the values for the MIC in [18] and in [19] were 2 mg/L (≈ 1.13 µM) and 4 mg/L (≈ 2.26 µM), respectively. Besides, in [7], the “mean geometric MIC, Vancomycin Resistant Strains” value was found to be 1.7 mg/L.
With `CNC(CC(C)C)C(=O)NC1C(=O)NC(CC(N)=O)C(=O)NC2C(=O)NC3C(=O)NC(C(=O)NC(C(=O)O)c4cc(O)cc(O)c4-c4cc3ccc4O)C(OC3CC(C)(N)C(O)C(C)O3)c3ccc(c(Cl)c3)Oc3cc2cc(c3OC2OC(CO)C(O)C(O)C2OC2CC(C)(NCc3cccnc3)C(O)C(C)O2)Oc2ccc(cc2Cl)C1O` (centres unmarked) [Compound 24], the “mean geometric MIC, Vancomycin Sensitive Strains” value in test [1] was determined as 0.67 mg/L. The minimum inhibitory concentration (MIC) against Entercoccus faecium 2041 is ≤ 0.06 mg/L; in test [2], ≤ 0.06 mg/L; in test [3], 1 mg/L (≈ 0.594 µM); in test [4] it was 4 mg/L (≈ 2.38 µM); in [5] it was ≤ 0.06 mg/L; in [6] it was 0.25 mg/L (≈ 0.148 µM). Also, the MIC against Entercoccus faecium 180 was 4 mg/L (≈ 2.38 µM); in test [8], 0.25 mg/L (≈ 0.148 µM); in test [9], 0.5 mg/L (≈ 0.297 µM); in test [10], ≤ 0.06 mg/L; in [11], ≤ 0.06 mg/L; in [12] it was 0.5 mg/L (≈ 0.297 µM). Besides, the MIC is 0.125 mg/L (≈ 0.0742 µM) in test [13]; 0.5 mg/L (≈ 0.297 µM) in test [14]; 0.25 mg/L (≈ 0.148 µM) with Entercoccus faecium 276; 1 mg/L (≈ 0.594 µM) in test [15]; ≤ 0.06 mg/L in [16]; ≤ 0.06 mg/L in test [17]. In addition, the MIC in [18] was 2 mg/L (≈ 1.19 µM); in [19], ≤ 0.06 mg/L. Besides, the “mean geometric MIC, Vancomycin Resistant Strains” value in test [7] amounted to 54 mg/L.
